{
  "source": "patent US8192962B2",
  "about": "“Processes for detecting toxic substances” (Daikin Industries, Ltd., priority 2001, dated 2012)",
  "tested_on": "Transport facilitation protein genes",
  "assay": "DNA chip mRNA expression in yeast, transport facilitation protein genes (Table 5)",
  "assay_type": "cell-based, Saccharomyces cerevisiae S288C",
  "method": "Yeast (Saccharomyces cerevisiae S288C (α SUC2mal mel gap2 CUP1)) were incubated at 25° C. on YPD medium (yeast extract 1%, polypepton 2%, glucose 2%). One of toxic chemical substances was added to the cells at logarithmic growth phase, and the cells were further incubated for two hours. Cells were cultured without any chemical substance in the same condition, and were used as control. Concentrations of the chemical substances were defined to inhibit the growth of the yeast but not lead to death.\nAfter completion of the incubation, the culture was centrifuged to collect the cells. To the cells, sodium acetate buffer (50 mM sodium acetate, 10 mM EDTA, 1% SDS) was added, and the mixture was shaken at 65° C. for five minutes, followed by returning to room temperature, and obtaining the supernatant, of which the procedures were repeated two times. To the supernatant, ½ amount of a solution of phenol/chloroform was added, and the mixture was centrifuged to give a supernatant, which was added with an equal amount of chloroform, and the mixture was centrifuged to give a supernatant. To the supernatant, an equal amount of isopropanol containing 0.3 M sodium acetate was added, and the mixture was allowed to stand at room temperature for 30 minutes, after which the mixture was centrifuged to give a sediment of the whole RNAs. Seventy % ethanol was added to the sediment, and the mixture was again centrifuged to give a sediment, which was then dried and dissolved in water. mRNA was isolated from the whole RNAs as followings. In view of the fact that a poly A chain is attached to the 3′ terminus of mRNA, a polynucleotide having a poly T structure which was immobilized on the surface of latex beads was used to trap the mRNA, and then the mRNA was washed and eluted with spine column (Oligotex-dT30<Super>mRNA Purification Kit, Takara). Reverse transcription of the mRNA was conducted with a reverse transcriptase (Super Script II Reverse Transcriptase; catalogue No. 18064-014, GibcoBRL) using fluorescence-labeled nucleotides to give cDNAs that were introduced with Cy3-dUTP or Cy5-dUTP during the reverse transcription.\nThe labeled cDNAs were dissolved in TE buffer (10mM Tris-HCl/1 mM EDTA, pH8.0), and the solution was dropped on the DNA chip containing the whole genes of yeast (DNA Chip Research Inc. Japan) so that the cDNAs were hybridized on the DNA chip at 65° C. for over 12 hours. The fluoresces intensity of the DNA chip was read with a scanner, and the ratio relative to the fluorescence intensity resulting from the absence of chemical substance was estimated as the following, which is shown in Tables 1 to 9: […]",
  "data": [
    {"smiles": "[Cl][Pb][Cl]", "note": "[(4), PbCl2]", "values": [
      {"measurement": "The level of expressed mRNA in the presence of chemical substance/The level of expressed mRNA in the absence of chemical substance", "setting": "yeast gene YGR260W", "result": 0.8},
      {"measurement": "The level of expressed mRNA in the presence of chemical substance/The level of expressed mRNA in the absence of chemical substance", "setting": "yeast gene YGR281W", "result": 2.2},
      {"measurement": "The level of expressed mRNA in the presence of chemical substance/The level of expressed mRNA in the absence of chemical substance", "setting": "yeast gene YHL035C", "result": 1.9},
      {"measurement": "The level of expressed mRNA in the presence of chemical substance/The level of expressed mRNA in the absence of chemical substance", "setting": "yeast gene YHL040C", "result": 0.4},
      {"measurement": "The level of expressed mRNA in the presence of chemical substance/The level of expressed mRNA in the absence of chemical substance", "setting": "yeast gene YHL047C", "result": 1.0},
      {"measurement": "The level of expressed mRNA in the presence of chemical substance/The level of expressed mRNA in the absence of chemical substance", "setting": "yeast gene YHR026W", "result": 1.0},
      {"measurement": "The level of expressed mRNA in the presence of chemical substance/The level of expressed mRNA in the absence of chemical substance", "setting": "yeast gene YHR092C", "result": 2.5},
      {"measurement": "The level of expressed mRNA in the presence of chemical substance/The level of expressed mRNA in the absence of chemical substance", "setting": "yeast gene YHR094C", "result": 1.6},
      {"measurement": "The level of expressed mRNA in the presence of chemical substance/The level of expressed mRNA in the absence of chemical substance", "setting": "yeast gene YHR175W", "result": 1.5},
      {"measurement": "The level of expressed mRNA in the presence of chemical substance/The level of expressed mRNA in the absence of chemical substance", "setting": "yeast gene YIL006W", "result": 2.9},
      {"measurement": "The level of expressed mRNA in the presence of chemical substance/The level of expressed mRNA in the absence of chemical substance", "setting": "yeast gene YIL022W", "result": 1.6},
      {"measurement": "The level of expressed mRNA in the presence of chemical substance/The level of expressed mRNA in the absence of chemical substance", "setting": "yeast gene YIL056W", "result": 1.4},
      {"measurement": "The level of expressed mRNA in the presence of chemical substance/The level of expressed mRNA in the absence of chemical substance", "setting": "yeast gene YIL088C", "result": 1.3},
      {"measurement": "The level of expressed mRNA in the presence of chemical substance/The level of expressed mRNA in the absence of chemical substance", "setting": "yeast gene YJL034W", "result": 0.8},
      {"measurement": "The level of expressed mRNA in the presence of chemical substance/The level of expressed mRNA in the absence of chemical substance", "setting": "yeast gene YJL212C", "result": 0.5},
      {"measurement": "The level of expressed mRNA in the presence of chemical substance/The level of expressed mRNA in the absence of chemical substance", "setting": "yeast gene YJL219W", "result": 1.6},
      {"measurement": "The level of expressed mRNA in the presence of chemical substance/The level of expressed mRNA in the absence of chemical substance", "setting": "yeast gene YJR077C", "result": 1.6},
      {"measurement": "The level of expressed mRNA in the presence of chemical substance/The level of expressed mRNA in the absence of chemical substance", "setting": "yeast gene YJR106W", "result": 1.1},
      {"measurement": "The level of expressed mRNA in the presence of chemical substance/The level of expressed mRNA in the absence of chemical substance", "setting": "yeast gene YJR121W", "result": 1.0},
      {"measurement": "The level of expressed mRNA in the presence of chemical substance/The level of expressed mRNA in the absence of chemical substance", "setting": "yeast gene YKL016C", "result": 1.7},
      {"measurement": "The level of expressed mRNA in the presence of chemical substance/The level of expressed mRNA in the absence of chemical substance", "setting": "yeast gene YKL146W", "result": 0.9},
      {"measurement": "The level of expressed mRNA in the presence of chemical substance/The level of expressed mRNA in the absence of chemical substance", "setting": "yeast gene YKR039W", "result": 1.7},
      {"measurement": "The level of expressed mRNA in the presence of chemical substance/The level of expressed mRNA in the absence of chemical substance", "setting": "yeast gene YKR067W", "result": 2.5},
      {"measurement": "The level of expressed mRNA in the presence of chemical substance/The level of expressed mRNA in the absence of chemical substance", "setting": "yeast gene YLL028W", "result": 0.5},
      {"measurement": "The level of expressed mRNA in the presence of chemical substance/The level of expressed mRNA in the absence of chemical substance", "setting": "yeast gene YLR081W", "result": 3.6},
      {"measurement": "The level of expressed mRNA in the presence of chemical substance/The level of expressed mRNA in the absence of chemical substance", "setting": "yeast gene YLR295C", "result": 1.7},
      {"measurement": "The level of expressed mRNA in the presence of chemical substance/The level of expressed mRNA in the absence of chemical substance", "setting": "yeast gene YLR348C", "result": 1.2},
      {"measurement": "The level of expressed mRNA in the presence of chemical substance/The level of expressed mRNA in the absence of chemical substance", "setting": "yeast gene YLR378C", "result": 0.5},
      {"measurement": "The level of expressed mRNA in the presence of chemical substance/The level of expressed mRNA in the absence of chemical substance", "setting": "yeast gene YMR011W", "result": 5.5},
      {"measurement": "The level of expressed mRNA in the presence of chemical substance/The level of expressed mRNA in the absence of chemical substance", "setting": "yeast gene YMR162C", "result": 2.0},
      {"measurement": "The level of expressed mRNA in the presence of chemical substance/The level of expressed mRNA in the absence of chemical substance", "setting": "yeast gene YMR203W", "result": 1.4},
      {"measurement": "The level of expressed mRNA in the presence of chemical substance/The level of expressed mRNA in the absence of chemical substance", "setting": "yeast gene YNL055C", "result": 2.0},
      {"measurement": "The level of expressed mRNA in the presence of chemical substance/The level of expressed mRNA in the absence of chemical substance", "setting": "yeast gene YNL259C", "result": 1.2},
      {"measurement": "The level of expressed mRNA in the presence of chemical substance/The level of expressed mRNA in the absence of chemical substance", "setting": "yeast gene YNR072W", "result": 0.7},
      {"measurement": "The level of expressed mRNA in the presence of chemical substance/The level of expressed mRNA in the absence of chemical substance", "setting": "yeast gene YOL119C", "result": 2.3},
      {"measurement": "The level of expressed mRNA in the presence of chemical substance/The level of expressed mRNA in the absence of chemical substance", "setting": "yeast gene YOL156W", "result": 1.1},
      {"measurement": "The level of expressed mRNA in the presence of chemical substance/The level of expressed mRNA in the absence of chemical substance", "setting": "yeast gene YOL163W", "result": 3.3},
      {"measurement": "The level of expressed mRNA in the presence of chemical substance/The level of expressed mRNA in the absence of chemical substance", "setting": "yeast gene YOR035C", "result": 1.2},
      {"measurement": "The level of expressed mRNA in the presence of chemical substance/The level of expressed mRNA in the absence of chemical substance", "setting": "yeast gene YOR130C", "result": 1.0},
      {"measurement": "The level of expressed mRNA in the presence of chemical substance/The level of expressed mRNA in the absence of chemical substance", "setting": "yeast gene YOR153W", "result": 1.1},
      {"measurement": "The level of expressed mRNA in the presence of chemical substance/The level of expressed mRNA in the absence of chemical substance", "setting": "yeast gene YOR273C", "result": 1.0},
      {"measurement": "The level of expressed mRNA in the presence of chemical substance/The level of expressed mRNA in the absence of chemical substance", "setting": "yeast gene YOR316C", "result": 1.5},
      {"measurement": "The level of expressed mRNA in the presence of chemical substance/The level of expressed mRNA in the absence of chemical substance", "setting": "yeast gene YOR328W", "result": 1.0},
      {"measurement": "The level of expressed mRNA in the presence of chemical substance/The level of expressed mRNA in the absence of chemical substance", "setting": "yeast gene YOR332W", "result": 1.0},
      {"measurement": "The level of expressed mRNA in the presence of chemical substance/The level of expressed mRNA in the absence of chemical substance", "setting": "yeast gene YOR348C", "result": 2.0},
      {"measurement": "The level of expressed mRNA in the presence of chemical substance/The level of expressed mRNA in the absence of chemical substance", "setting": "yeast gene YPL036W", "result": 0.9},
      {"measurement": "The level of expressed mRNA in the presence of chemical substance/The level of expressed mRNA in the absence of chemical substance", "setting": "yeast gene YPL134C", "result": 1.6},
      {"measurement": "The level of expressed mRNA in the presence of chemical substance/The level of expressed mRNA in the absence of chemical substance", "setting": "yeast gene YPL271W", "result": 1.2},
      {"measurement": "The level of expressed mRNA in the presence of chemical substance/The level of expressed mRNA in the absence of chemical substance", "setting": "yeast gene YPR192W", "result": 5.0},
      {"measurement": "The level of expressed mRNA in the presence of chemical substance/The level of expressed mRNA in the absence of chemical substance", "setting": "yeast gene YPR194C", "result": 2.9}
    ]}
  ]
}
